#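 The compound was tested at five concentrations on cells cultured in 96-well plates, with a 48-hour exposure period. TGI denotes the concentration required for complete inhibition of growth.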
# Experiments:
# Assay in all cases: NCI tumour cell line growth inhibition, 48 h
# [1] = test system: T-47D breast
# [2] = test system: SK-OV-3 ovarian
# [3] = test system: K-562 leukemia
# [4] = test system: ACHN renal
# [5] = test system: CAKI-1 renal
# [6] = test system: MDA-MB-435
# [7] = test system: IGROV1 ovarian
# [8] = test system: TK-10 renal
# [9] = test system: UACC-257 melanoma
# [10] = test system: SF-268 CNS
# [11] = test system: M14 melanoma
# [12] = test system: OVCAR-8 ovarian
# [13] = test system: NCI-H522 lung
# [14] = test system: MDA-N
# [15] = test system: NCI-H23 lung
# [16] = test system: MALME-3M melanoma
# [17] = test system: SF-295 CNS
# [18] = test system: SF-539 CNS
# [19] = test system: MOLT-4 leukemia
# [20] = test system: SNB-19 CNS
# [21] = test system: NCI-H460 lung
# [22] = test system: EKVX NSCLC
# [23] = test system: HL-60(TB) leukemia
# [24] = test system: NCI-H226 lung
# [25] = test system: HOP-62 NSCLC
# [26] = test system: SNB-75 CNS
# [27] = test system: LOX IMVI melanoma
# [28] = test system: SK-MEL-5 melanoma
# [29] = test system: 786-0 renal
# [30] = test system: SK-MEL-2 melanoma
# [31] = test system: A549 NSCLC
# [32] = test system: RXF 393 renal
# [33] = test system: RPMI-8226 leukemia
# [34] = test system: SN12C renal
# [35] = test system: MDA-MB-231 breast
# [36] = test system: CCRF-CEM leukemia
# [37] = test system: BT-549 breast
# [38] = test system: SW-620 colon
# [39] = test system: COLO 205 colon
# [40] = test system: KM12 colon
# [41] = test system: OVCAR-4 ovarian
# [42] = test system: HT29 colon
# [43] = test system: A498 renal
# [44] = test system: HOP-92 NSCLC
# [45] = test system: HCT-116 colon
# [46] = test system: UACC-62 melanoma
# [47] = test system: OVCAR-3 ovarian
# [48] = test system: U251 CNS
# [49] = test system: HCC-2998 colon
# [50] = test system: SR leukemia
# [51] = test system: NCI/ADR-RES ovarian
# [52] = test system: OVCAR-5 ovarian
# [53] = test system: SK-MEL-28 melanoma
# [54] = test system: DU-145 prostate
# [55] = test system: HS 578T breast
# [56] = test system: HCT-15 colon
# [57] = test system: MCF7 breast
# [58] = test system: PC-3 prostate
# [59] = test system: UO-31 renal
smiles,measurement,setting,value
COc1nc(N)c(N=O)c(OCc2ccccc2)n1,TGI,[1],5.49 µM
same,TGI,[2],> 10 µM
same,TGI,[3],> 10 µM
same,TGI,[4],> 10 µM
same,TGI,[5],> 10 µM
same,TGI,[6],> 10 µM
same,TGI,[7],> 10 µM
same,TGI,[8],> 10 µM
same,TGI,[9],> 10 µM
same,TGI,[10],> 10 µM
same,TGI,[11],> 10 µM
same,TGI,[12],> 10 µM
same,TGI,[13],3.59 µM
same,TGI,[14],> 10 µM
same,TGI,[15],> 10 µM
same,TGI,[16],5.97 µM
same,TGI,[17],> 10 µM
same,TGI,[18],> 10 µM
same,TGI,[19],> 10 µM
same,TGI,[20],> 10 µM
same,TGI,[21],> 10 µM
same,TGI,[22],> 10 µM
same,TGI,[23],> 10 µM
same,TGI,[24],> 10 µM
same,TGI,[25],> 10 µM
same,TGI,[26],> 10 µM
same,TGI,[27],> 10 µM
same,TGI,[28],> 10 µM
same,TGI,[29],> 10 µM
same,TGI,[30],> 10 µM
same,TGI,[31],> 10 µM
same,TGI,[32],> 10 µM
same,TGI,[33],> 10 µM
same,TGI,[34],> 10 µM
same,TGI,[35],> 10 µM
same,TGI,[36],6.84 µM
same,TGI,[37],> 10 µM
same,TGI,[38],4.35 µM
same,TGI,[39],2.37 µM
same,TGI,[40],> 10 µM
same,TGI,[41],> 10 µM
same,TGI,[42],> 10 µM
same,TGI,[43],> 10 µM
same,TGI,[44],> 10 µM
same,TGI,[45],> 10 µM
same,TGI,[46],> 10 µM
same,TGI,[47],> 10 µM
same,TGI,[48],> 10 µM
same,TGI,[49],> 10 µM
same,TGI,[50],> 10 µM
same,TGI,[51],> 10 µM
same,TGI,[52],> 10 µM
same,TGI,[53],> 10 µM
same,TGI,[54],> 10 µM
same,TGI,[55],> 10 µM
same,TGI,[56],> 10 µM
same,TGI,[57],> 10 µM
same,TGI,[58],> 10 µM
COC(=O)c1oc([N+](=O)[O-])c(Cl)c1Cl,TGI,[1],13.1 µM
same,TGI,[2],33.2 µM
same,TGI,[3],6.48 µM
same,TGI,[4],15.6 µM
same,TGI,[5],7.4 µM
same,TGI,[6],14.6 µM
same,TGI,[7],14.8 µM
same,TGI,[8],14 µM
same,TGI,[9],15.2 µM
same,TGI,[10],17.5 µM
same,TGI,[11],13.8 µM
same,TGI,[12],30.4 µM
same,TGI,[13],3.33 µM
same,TGI,[14],14.9 µM
same,TGI,[15],17.4 µM
same,TGI,[16],14.3 µM
same,TGI,[17],24.7 µM
same,TGI,[18],14.4 µM
same,TGI,[19],4.93 µM
same,TGI,[20],35.4 µM
same,TGI,[21],34.6 µM
same,TGI,[22],36.8 µM
same,TGI,[23],3.24 µM
same,TGI,[24],42.9 µM
same,TGI,[25],17 µM
same,TGI,[26],20.8 µM
same,TGI,[27],13.7 µM
same,TGI,[28],17.7 µM
same,TGI,[29],16.4 µM
same,TGI,[30],31.6 µM
same,TGI,[31],37.7 µM
same,TGI,[32],28 µM
same,TGI,[33],15.8 µM
same,TGI,[34],14.2 µM
same,TGI,[35],14 µM
same,TGI,[36],7.35 µM
same,TGI,[37],14.8 µM
same,TGI,[38],10 µM
same,TGI,[39],8.61 µM
same,TGI,[40],14.5 µM
same,TGI,[41],17.4 µM
same,TGI,[42],41.4 µM
same,TGI,[43],23 µM
same,TGI,[44],39.3 µM
same,TGI,[45],12.9 µM
same,TGI,[46],15.7 µM
same,TGI,[47],11.4 µM
same,TGI,[48],15.5 µM
same,TGI,[49],35 µM
same,TGI,[59],14.5 µM
same,TGI,[50],4.89 µM
same,TGI,[51],36.5 µM
same,TGI,[52],14.8 µM
same,TGI,[53],15.8 µM
same,TGI,[54],32.5 µM
same,TGI,[55],29.3 µM
same,TGI,[56],18.2 µM
same,TGI,[57],6.27 µM
same,TGI,[58],15.1 µM

# Reference: PubChem BioAssay (NCI)
